Measurements as given in patent US11491228B2, “Hydrogels and uses thereof” (Massachusetts Institute of Technology, priority 2018, dated 2022).

Experiment: Release of taxanes from PEG alkynoate-TREN (beta-aminoacrylate) gel into PBS, HPLC
Assay type: physicochemical
Settings: 37° C.
Description: Samples were stored at +4° C. […] The wavelength of detection was 227 nm. Phases were A: water, B: MeCN.

In the case of `CC(=O)O[C@@]12CO[C@@H]1C[C@H](O)[C@@]1(C)C(=O)[C@H](O)C3=C(C)[C@@H](OC(=O)[C@H](O)[C@@H](NC(=O)OC(C)(C)C)c4ccccc4)C[C@@](O)([C@@H](OC(=O)c4ccccc4)[C@H]21)C3(C)C` [Docetaxel, docetaxel], the “Concentrations of taxane following release from PEG alkynoate-TREN gels” value (from here on “Concentrations”) (1 h, average) is reported as 0.03929 µg/mL, the “Concentrations” value (1 h, replicate A) is reported as -0.1523 µg/mL and the “Concentrations” value (1 h, replicate B) is reported as 0.4224 µg/mL. The “Concentrations” value (1 h, replicate C) was -0.1523 µg/mL, the “Concentrations” value (2 h, average) was 0.2014 µg/mL and the “Concentrations” value (2 h, replicate A) was -0.1523 µg/mL. The “Concentrations” value (2 h, replicate B) was 0.555 µg/mL, the “Concentrations” value (2 h, replicate C) was 0.2014 µg/mL and the “Concentrations” value (5 h, average) was 0.3635 µg/mL. The “Concentrations” value (5 h, replicate A) was 1.041 µg/mL, the “Concentrations” value (5 h, replicate B) was 0.2014 µg/mL and the “Concentrations” value (5 h, replicate C) was -0.1523 µg/mL. For the same compound, the “Concentrations” value (20 h, average) was 0.2677 µg/mL, the “Concentrations” value (20 h, replicate A) was 0.6434 µg/mL and the “Concentrations” value (20 h, replicate B) was 0.3119 µg/mL. For the same compound, the “Concentrations” value (20 h, replicate C) was -0.1523 µg/mL, the “Concentrations” value (48 h, average) was 1.1279 µg/mL and the “Concentrations” value (48 h, replicate A) was 0.9847 µg/mL. The “Concentrations” value (48 h, replicate B) was 1.003 µg/mL, the “Concentrations” value (48 h, replicate C) was 1.396 µg/mL and the “% released from PEG alkynoate-TREN gels” value (Table 3, 1 h, average) was 0.05239%. The “% released from PEG alkynoate-TREN gels” value (Table 3, 1 h, replicate A) was −0.203%, the “% released from PEG alkynoate-TREN gels” value (Table 3, 1 h, replicate B) was 0.5632% and the “% released from PEG alkynoate-TREN gels” value (Table 3, 1 h, replicate C) was −0.203%. The “% released from PEG alkynoate-TREN gels” value (Table 3, 2 h, average) was 0.2685%, the “% released from PEG alkynoate-TREN gels” value (Table 3, 2 h, replicate A) was −0.203% and the “% released from PEG alkynoate-TREN gels” value (Table 3, 2 h, replicate B) was 0.74%. The “% released from PEG alkynoate-TREN gels” value (Table 3, 2 h, replicate C) was 0.2685%, the “% released from PEG alkynoate-TREN gels” value (Table 3, 5 h, average) was 0.4846% and the “% released from PEG alkynoate-TREN gels” value (Table 3, 5 h, replicate A) was 1.388%. For the same compound, the “% released from PEG alkynoate-TREN gels” value (Table 3, 5 h, replicate B) was 0.2685%, the “% released from PEG alkynoate-TREN gels” value (Table 3, 5 h, replicate C) was −0.203% and the “% released from PEG alkynoate-TREN gels” value (Table 3, 20 h, average) was 0.3569%. For the same compound, the “% released from PEG alkynoate-TREN gels” value (Table 3, 20 h, replicate A) was 0.8579%, the “% released from PEG alkynoate-TREN gels” value (Table 3, 20 h, replicate B) was 0.4158% and the “% released from PEG alkynoate-TREN gels” value (Table 3, 20 h, replicate C) was −0.203%. The “% released from PEG alkynoate-TREN gels” value (Table 3, 48 h, average) was 1.504%, the “% released from PEG alkynoate-TREN gels” value (Table 3, 48 h, replicate A) was 1.3129% and the “% released from PEG alkynoate-TREN gels” value (Table 3, 48 h, replicate B) was 1.337%. For the same compound, the “% released from PEG alkynoate-TREN gels” value (Table 3, 48 h, replicate C) was 1.862%, the “% released from PEG alkynoate-TREN gels” value (Table 4, 1 h, average) was 2.074% and the “% released from PEG alkynoate-TREN gels” value (Table 4, 1 h, replicate A) was 2.465%. For the same compound, the “% released from PEG alkynoate-TREN gels” value (Table 4, 1 h, replicate B) was 2.016%, the “% released from PEG alkynoate-TREN gels” value (Table 4, 1 h, replicate C) was 1.741% and the “% released from PEG alkynoate-TREN gels” value (Table 4, 6 h, average) was 4.82%. The “% released from PEG alkynoate-TREN gels” value (Table 4, 6 h, replicate A) was 6.195%, the “% released from PEG alkynoate-TREN gels” value (Table 4, 6 h, replicate B) was 4.946% and the “% released from PEG alkynoate-TREN gels” value (Table 4, 6 h, replicate C) was 3.318%. For the same compound, the “% released from PEG alkynoate-TREN gels” value (Table 4, 24 h, average) was 7.196%, the “% released from PEG alkynoate-TREN gels” value (Table 4, 24 h, replicate A) was 11.23% and the “% released from PEG alkynoate-TREN gels” value (Table 4, 24 h, replicate B) was 7.325%. For the same compound, the “% released from PEG alkynoate-TREN gels” value (Table 4, 24 h, replicate C) was 3.032%, the “% released from PEG alkynoate-TREN gels” value (Table 4, 96 h, average) was 12.3% and the “% released from PEG alkynoate-TREN gels” value (Table 4, 96 h, replicate A) was 8.246%. For the same compound, the “% released from PEG alkynoate-TREN gels” value (Table 4, 96 h, replicate B) was 9.349% and the “% released from PEG alkynoate-TREN gels” value (Table 4, 96 h, replicate C) was 19.32%.
